Experimental data taken from patent publication US20240252488A1 (KOREA RESEARCH INSTITUTE OF CHEMICAL TECHNOLOGY, priority 2020, published 2024).
pKd: −log10 of the molar value.

Tests used:
MLKL [1] = molecular target: T1, MLKL (Homo sapiens, UniProt Q8NB16); assay: MLKL degradation assay in HepG2 cell line (western blot); assay type: cell-based; design: endogenous in cells; host or cells: HepG2 or HaCaT; details: cell line not given; for Degradation assay (Degradation %) 1 μM: compound 1 μM; for Degradation assay (Degradation %) 10 μM: compound 10 μM
T1 sequence (Q8NB16 1-471): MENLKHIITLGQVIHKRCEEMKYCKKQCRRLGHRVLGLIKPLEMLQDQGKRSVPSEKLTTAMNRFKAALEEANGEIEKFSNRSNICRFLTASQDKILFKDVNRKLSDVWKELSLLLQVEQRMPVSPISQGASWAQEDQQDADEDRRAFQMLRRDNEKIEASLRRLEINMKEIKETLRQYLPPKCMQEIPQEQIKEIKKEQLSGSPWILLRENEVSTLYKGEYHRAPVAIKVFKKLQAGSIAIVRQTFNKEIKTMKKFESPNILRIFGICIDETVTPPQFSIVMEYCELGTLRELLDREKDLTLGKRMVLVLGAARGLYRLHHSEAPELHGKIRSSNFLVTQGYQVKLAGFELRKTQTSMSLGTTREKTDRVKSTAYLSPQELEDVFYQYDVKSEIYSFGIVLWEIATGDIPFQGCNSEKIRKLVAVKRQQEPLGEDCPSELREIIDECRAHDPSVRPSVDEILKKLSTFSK
Procedure, shortened: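 After treating HepG2 with test compounds (final 1 μM or 10 μM) for 20-24 h, we lysed cells, equalized protein by BCA and probed MLKL by overnight primary antibody at 4 °C followed by chemiluminescent detection.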

FADD−/− Jurkat cells = assay: Necroptosis inhibition assay, TNF-α-induced necroptosis (CellTiter-Glo 2.0); assay type: cell-based, human; details: TNF-α 15 ng/mL; for Necroptosis inhibition assay (Rescue %) 1 μM: compound 1 μM; for Necroptosis inhibition assay (Rescue %) 10 μM: compound 10 μM
Procedure, shortened: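 Necroptosis was triggered by TNF-α at 15 ng/mL final following 30 minutes of compound exposure (0.1, 1 or 10 μM final). Incubation ran 20 to 24 hours at 37° C under 5% CO2; cell ATP was then quantified by luminescence.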

MLKL [2] = molecular target: T1, MLKL; assay: Measurement of binding affinity with MLKL receptor (competitive binding assay, Kd); design: made in house; host or cells: HEK 293 cell line (T7 phage in E. coli BL21-derived host is also described)
Procedure, shortened: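 Kd from an immobilized-ligand competition format: the DNA-tagged kinase from HEK 293 expression is eluted and quantified by qPCR. Compounds added from 111× DMSO stocks, final DMSO 0.9%.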

SMILES | Degradation assay (Degradation %) 1 μM (MLKL [1]) | Necroptosis inhibition assay (Rescue %) 1 μM (FADD−/− Jurkat cells) | Necroptosis inhibition assay (Rescue %) 10 μM (FADD−/− Jurkat cells) | pKd (MLKL [2]) | Degradation assay (Degradation %) 10 μM (MLKL [1])
Nc1ncc(-c2cnn(C3CCN(CC4CCN(C(=O)C5CCN(c6cccc7c6C(=O)N(C6CCC(=O)NC6=O)C7=O)CC5)CC4)CC3)c2)nc1C(=O)N[C@@H](C(=O)Nc1ccc(F)cc1)c1ccccc1 (stereo partly drawn) [TDH-209, 3-amino-6-(1-(1-((1-(1-(2-(2,6-dioxopiperidin-3-yl)-1,3-dioxoisoindolin-4-yl)piperidine-4-carbonyl)piperidin-4-yl)methyl)piperidin-4-yl)-1H-pyrazol-4-yl)-N-((R)-2-((4-fluorophenyl)amino)-2-oxo-1-phenylethyl)pyrazine-2-carboxamide] | 7.36% | 7.73% | 18.12% | 6.85 | 
Cc1ncsc1-c1ccc(CNC(=O)[C@@H]2C[C@@H](O)CN2C(=O)[C@@H](NC(=O)CN2CCC(CN3CCC(n4cc(-c5cnc(N)c(C(=O)O[C@@H](C(=O)Nc6ccc(F)cc6)c6ccccc6)n5)cn4)CC3)CC2)C(C)(C)C)cc1 [TDH-211, (R)-2-((4-fluorophenyl)amino)-2-oxo-1-phenylethyl 3-amino-6-(1-(1-((1-(2-(((S)-1-((2S,4R)-4-hydroxy-2-((4-(4-methylthiazol-5-yl)benzyl)carbamoyl)pyrrolidin-1-yl)-3,3-dimethyl-1-oxobutan-2-yl)amino)-2-oxoethyl)piperidin-4-yl)methyl)piperidin-4-yl)-1H-pyrazol-4-yl)pyrazine-2-carboxylate] | 9.7% | 29.87% | 41.58% | 8.20 | 29.62%
Nc1ncc(-c2cnn(C3CCN(CCOCCOCCNC(=O)C4CCN(c5cccc6c5C(=O)N(C5CCC(=O)NC5=O)C6=O)CC4)CC3)c2)nc1C(=O)N[C@@H](C(=O)Nc1ccc(F)cc1)c1ccccc1 (stereo partly drawn) [TDH-213, 3-amino-6-(1-(1-(2-(2-(2-(1-(2-(2,6-dioxopiperidin-3-yl)-1,3-dioxoisoindolin-4-yl)piperidine-4-carboxamido)ethoxy)ethoxy)ethyl)piperidin-4-yl)-1H-pyrazol-4-yl)-N-((R)-2-((4-fluorophenyl)amino)-2-oxo-1-phenylethyl)pyrazine-2-carboxamide] | 4.45% | 18.34% | 44.98% | 6.48 | 8.28%
Nc1ncc(-c2cnn(C3CCN(CCOCCOCCNC(=O)CNc4cccc5c4C(=O)N(C4CCC(=O)NC4=O)C5=O)CC3)c2)nc1C(=O)N[C@@H](C(=O)Nc1ccc(F)cc1)c1ccccc1 (stereo partly drawn) [TDH-217, 3-amino-6-(1-(1-(2-(2-(2-(2-((2-(2,6-dioxopiperidin-3-yl)-1,3-dioxoisoindolin-4-yl)amino)acetamido)ethoxy)ethoxy)ethyl)piperidin-4-yl)-1H-pyrazol-4-yl)-N-((R)-2-((4-fluorophenyl)amino)-2-oxo-1-phenylethyl)pyrazine-2-carboxamide] | 11.62% | 24.76% | 48.87% | 7.18 | 31.11%
Nc1ncc(-c2cn(C3CCN(CC4CCN(C(=O)C5CCN(c6cccc7c6C(=O)N(C6CCC(=O)NC6=O)C7=O)CC5)CC4)CC3)nn2)nc1C(=O)OC(C(=O)Nc1ccc(F)cc1)c1ccccc1 (stereo not drawn) [TDH-222, 2-((4-fluorophenyl)amino)-2-oxo-1-phenylethyl 3-amino-6-(1-(1-((1-(1-(2-(2,6-dioxopiperidin-3-yl)-1,3-dioxoisoindolin-4-yl)piperidine-4-carbonyl)piperidin-4-yl)methyl)piperidin-4-yl)-1H-1,2,3-triazol-4-yl)pyrazine-2-carboxylate] | 37.4% | 45.31% | 34.2% | 7.80 | 30.04%
